Laboratory results: patent US20080113983A1, “Nicotinic Acetylcholine Receptor Ligands” (AstraZeneca AB, priority 2004, published 2008)

Target: T1, α4 nAChR receptor (Rattus norvegicus, UniProt P09483+P12390)
T1 construct: from tissue; host or cells: rat cortical brain membranes
Assay: Radioligand ([125I]-IPH) binding to rat cortical membranes
Conditions: saturation curves fitted to a one site model
Description: Assay for affinity at an α4 nAChR receptor by measuring the binding of [^3H]-(-)-nicotine binding to rat cortical membranes.
A procedure modified from Martino-Barrows and Kellar (Mol Pharm (1987) 31:169-174) may be used. Rat cortical brain membranes are prepared as described in the [^125I]α-BTX binding assay, except that a 500-12000×g membrane fraction is prepared. Membranes (30-150 μg) are incubated with 30-100 pM of the epibatidine analog [^125I]-IPH ((+/−)-exo-2-(2-iodo-5-pyridyl)-7-azabicyclo-[2,2,1]heptane) together with test compound in HB for 1 hour at room temperature with gentle shaking. Membranes may be recovered as described for the [^125I]α-BTX binding assay. Non-specific binding may be determined by 100 μM carbachol. Typically specific binding is about 84%.
Analysis of Binding Data Obtained in α7 nAChR or α4 nAChR receptor assays
IC50 values and pseudo Hill coefficients (nH) may be calculated using the non-linear curve fitting program ALLFIT (DeLean A, Munson P J and Rodbard D (1977) Am. J. Physiol., 235:E97-E102). […] Ki values may be estimated using the general Cheng-Prusoff equation:
Ki=[IC50 ]/((2+([ligand]/KD)^n)^1/n−1)
where a value of n=1 is used whenever nH<1.5 and a value of n=2 is used when nH>1.5. To account for variability, assays may be performed in triplicate and variability will typically be ±5%. Ki values may be determined using six to 11 drug concentrations.

T1 sequence (P12390 25-500): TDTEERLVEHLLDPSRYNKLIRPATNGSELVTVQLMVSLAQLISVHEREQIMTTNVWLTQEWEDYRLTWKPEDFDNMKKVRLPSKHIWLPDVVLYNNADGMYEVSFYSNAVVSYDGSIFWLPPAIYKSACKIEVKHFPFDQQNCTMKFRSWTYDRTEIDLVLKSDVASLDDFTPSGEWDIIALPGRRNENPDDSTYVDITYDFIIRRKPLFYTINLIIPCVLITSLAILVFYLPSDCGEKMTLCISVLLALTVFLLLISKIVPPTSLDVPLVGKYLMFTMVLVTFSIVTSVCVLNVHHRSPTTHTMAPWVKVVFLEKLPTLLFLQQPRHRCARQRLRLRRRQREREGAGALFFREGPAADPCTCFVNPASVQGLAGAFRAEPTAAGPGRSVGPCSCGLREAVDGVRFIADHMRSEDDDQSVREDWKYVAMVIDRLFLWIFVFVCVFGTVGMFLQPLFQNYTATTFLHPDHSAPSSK
T1 sequence (P09483 31-630): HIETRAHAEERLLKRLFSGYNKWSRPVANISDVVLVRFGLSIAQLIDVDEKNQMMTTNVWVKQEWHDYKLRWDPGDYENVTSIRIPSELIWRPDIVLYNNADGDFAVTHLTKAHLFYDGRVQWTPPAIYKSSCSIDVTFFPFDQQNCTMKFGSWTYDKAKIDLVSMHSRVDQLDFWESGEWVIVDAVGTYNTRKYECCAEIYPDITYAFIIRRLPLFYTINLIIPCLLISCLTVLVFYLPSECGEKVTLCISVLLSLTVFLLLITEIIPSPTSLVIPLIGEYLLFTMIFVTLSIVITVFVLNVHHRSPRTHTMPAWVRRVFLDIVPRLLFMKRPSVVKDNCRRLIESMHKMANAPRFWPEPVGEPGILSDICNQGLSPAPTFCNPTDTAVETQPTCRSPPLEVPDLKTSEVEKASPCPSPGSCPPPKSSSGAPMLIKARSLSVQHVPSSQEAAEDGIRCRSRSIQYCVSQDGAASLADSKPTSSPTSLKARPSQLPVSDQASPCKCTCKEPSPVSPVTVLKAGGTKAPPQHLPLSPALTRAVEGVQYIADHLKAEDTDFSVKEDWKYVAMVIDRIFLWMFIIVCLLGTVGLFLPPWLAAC

## Ic1ccc(C2CC3CCC2N3)cn1 (racemic) [[^125I]-IPH, (+/−)-exo-2-(2-iodo-5-pyridyl)-7-azabicyclo-[2,2,1]heptane]
  Kd: 0.064 nM
